In patent publication US12440479B2, “Prevention or treatment of chronic organ injury” (GEORG-AUGUST-UNIVERSITAET GOETTINGEN, STIFTUNG …, priority 2018, dated 2025):

Columns and labels:
[1] = target: FKBP12/YY1 (Mus musculus, UniProt P26883); test: Co-immunoprecipitation after Yy1 pull-down in cultured TECs; assay type: cell-based; conditions: FK506 added to culture media, IP: Yy1
Procedure: CoIP was performed with Protein G Immunoprecipitation Kit (Roche, Basel, Switzerland). Protein A/G PLUS Agarose beads (Santa Cruz Biotechnology, Santa Cruz, USA) were used for the lysate pre-cleaning and pull-down. For each CoIP, 2×10^7 MCT cells have been used following the manufacturer's instructions. Yy1 (ab12132, Abcam Biochemicals, Cambridge, UK), Fkbp12 (ab2918, Abcam Biochemicals, Cambridge, UK), Arnt (3718, Cell Signaling, Danvers, USA), GFP (MA5-15256, Thermo Fisher Scientific, Waltham, USA) and myc-tag antibodies (2276, Cell Signaling, Danvers, USA) were used for immunoprecipitation, detection of co-immunoprecipitated Fkbp12 (ab12132, Abcam Biochemicals, Cambridge, UK), Hif1α ([MUT], Sigma, St. Louis, USA), Ahr (MA1-514, Thermo Fisher Scientific, Waltham, USA), GFP (MA5-15256, Thermo Fisher Scientific, Waltham, USA) and myc-tag (2276, Cell Signaling, Danvers, USA) was performed by immunoblotting.

[2] = system: ARNT dimers; test: Native gel electrophoresis of endogenous ARNT in TECs; assay type: cell-based, mouse; conditions: TECs upon exposure to FK506
Text: Tissue and cells were homogenized in NP40 lysis buffer (Life technologies, Carlsbad, USA) supplemented with protease inhibitor cocktail (Roche, Basel, Switzerland). After sonication, protein samples were resolved by a 4-12% Bis-Tris polyacrylamide gel electrophoresis system (Novex, Carlsbad, USA) and transferred onto a nitrocellulose membrane (GE Healthcare, Freiburg, Deutschland), followed by a blocking step with 5% dry milk or 5% bovine serum albumin (BSA) in TBS-T (TBS pH 7.2, 0.1% Tween-20) to prevent unspecific bindings. After incubation with respective primary antibodies against ALK3 (ABD51, Merck Millipore, Billerica, USA) and ALK6 (ABD50, Merck Millipore, Billerica, USA), pSmad1/5/8 (13820, Cell Signaling, Danvers, USA), Arnt (3718, Cell Signaling, Danvers, USA), Fkbp12 (ab2918, Abcam Biochemicals, Cambridge, UK), NFATc1 (sc-7294, Santa Cruz Biotechnology, Dallas, USA), NFATc2 (sc-7295, Santa Cruz Biotechnology, Dallas, USA), β-actin (A5316, Sigma, St. Louis, USA) and Gapdh (5G4, HyTest, Turku, Finland), secondary HRP-conjugated antibodies were used (Dako, Glostrup, Denmark). Luminescence was detected by using chemiluminescent substrate (Cell Signaling, Danvers, USA) on a ChemiDoc XRS system (Bio-Rad, Hercules, USA). Native protein samples were prepared with Native PAGE Sample Prep kit (Novex, Carlsbad, USA) according to the manufacturer's instruction. […]

FKBP12/YY1, sequence (P26883 whole entry): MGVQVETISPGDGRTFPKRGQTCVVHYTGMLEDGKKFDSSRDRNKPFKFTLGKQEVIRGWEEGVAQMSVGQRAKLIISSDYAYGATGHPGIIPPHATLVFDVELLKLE

For `C=CC[C@@H]1/C=C(\C)C[C@H](C)C[C@H](OC)[C@H]2O[C@@](O)(C(=O)C(=O)N3CCCC[C@H]3C(=O)O[C@H](/C(C)=C/[C@@H]3CC[C@@H](O)[C@H](OC)C3)[C@H](C)[C@@H](O)CC1=O)[C@H](C)C[C@@H]2OC` [FK506, tacrolimus], the FKBP12/YY1 interaction [1] was “not detectable” and the “formation of ARNT dimers” value [2] was “further enhanced”.
